These results are taken from article PMC9381536, “Non-apoptotic cell death induction via sapogenin based supramolecular particles” (Scientific Reports, 2022).

Entries after “also recorded” stand apart in the source; their conditions may differ.

One data set has as its system HeLa. Put plainly: Cytotoxicity analysis (WST-1). It is filed as cell-based. Particulars: Homo sapiens, 48 h. The procedure: (§1) HCC1937 (Human breast cancer line), HeLa (Human […]), A549 (Human lung adenocarcinoma), MRC-5 (Human lung fibroblasts), MCF7 (Human breast cancer cells), A549 (human lung carcinoma) were obtained from American Type Culture Collection and maintained as exponentially growing monolayers by culturing according to the supplier’s instructions. MCF7, HeLa, MRC-5, and A549 cell lines were cultured and routinely passaged in DMEM media containing 10% FBS, while HCC1937 cell lines were propagated in RPMI 1640 containing 10% FBS.
(§2) Following the treatment with compounds or vehicle for 48 h, the 10% WST-1 (Roche, Switzerland) in medium was replaced in each 96 well. After 4 h incubation with WST-1 reagent at 37 °C and 5% CO2, the absorbance was measured using a microplate reader at 440 nm (Varioscan, Thermo Fisher Scientific, US). Graph Pad Prism 5 (San Diego, CA, US.) was used to calculate the IC50, which represents the concentration of compounds that is required for 50% inhibition in comparison to the vehicle-treated controls. The experiments were repeated three times independently.
A general note: Formazan colour is commonly taken as a measure of viable cells.

For another data set, the system named is A549. Put plainly: Cytotoxicity analysis (WST-1). It is filed as cell-based. The conditions noted are these: Homo sapiens, A549, 48 h. How it is done:
as §1, §2

The test system of another data set is MRC-5. Put plainly: Cytotoxicity analysis (WST-1). Format: cell-based. The conditions noted are these: Homo sapiens, MRC5, MRC-5 normal cell line, 48 h. The procedure:
as §1, §2

In data set [1] the test system is HCC1937. The data set can be described thus: Cytotoxicity analysis (WST-1). The conditions noted are these: Homo sapiens, HCC1937, 48 h. Format: cell-based. How it is done: as §1, §2
Another data set relates to MCF7. The data set can be described thus: Cytotoxicity analysis (WST-1). The conditions noted are these: Homo sapiens, MCF7, 48 h. It is filed as cell-based. How it is done:
as §1, §2

Data set [2] can be described thus: Nile red staining (particle formation). Format: physicochemical. Particulars: even at 30 µM. How it is done: AG-08 and AG were dissolved in DMSO as a 1000-fold concentrated stock added into the filtered PBS, which contain 2.5 µM Nile red. After 3 h incubation at room temperature, the fluorescence intensity was measured with a microplate reader (550 nm for excitation and 635 nm for the emission wavelength) (Varioscan, Thermo Fisher Scientific, US).

For data set [3], the system named is HCC1937 cells. The data set can be described thus: Cytotoxicity of 220 nm filtrates. Format: cell-based. Particulars: inferred from filtration and Tween-20 tests. How it is done:
Figure 1 AG-08 mediated cytotoxicity relies on the supramolecular structures. (A) Structure of AG-08. (B) The scanning transmission electron micrograph of 16 µM AG-08 in PBS. Figure is a representative image of stained sample with uranyl acetate (5683 × magnification; scale bar 600 nm). (C) After 3 h incubation of Nile red solution with AG-08 or AG, fluorescence intensity of Nile red was measured. (D) AG-08, Staurosporine (Sta) or vehicle samples prepared in the cell condition medium was filtrated by 220 nm filter and HCC1937 cells were exposed to the filtrates. After 24 h, the viability of cells was measured and represented as a percentage of that of the vehicle control. The error bars represent mean value ± s.d. (n = 3). *p < 0.05, **p < 0.005, ***p < 0.001. (E) Tween 20 (1:40,000) was added to the fresh medium before addition of 8 μM AG-08 or vehicle. Then cell medium was replaced with this fresh medium. Cell viability was detected after 24 h incubation. […] TEXT PRINTED IN THE PICTURE: (F) no label printed: Diameter: 153.2±4.6; polydispersity index: 0.218
To verify that the activity of AG-08 arises from its supramolecular structures, freshly prepared AG-08 solutions were filtered using 220 nm-filters to remove AG-08 supramolecular particles from medium, and the filtrates were analyzed for their cytotoxicity. […] Next, Tween-20 was utilized as a non-ionic detergent to block particle formation, and AG-08-mediated cell death was inhibited as expected (Fig. 1E). […]

The subject of data set [4] is HCC1937. The data set can be described thus: LDH (lactate dehydrogenase) releasing assay. It is filed as cell-based, Human. Particulars: LDH release and immunoblotting. How it is done: Figure 5 The cytotoxic activity of analogs depends on particle formation like AG-08. […] The level of released LDH was calculated as fold change relative to vehicle. […] After 24 h, cell viability was measured. […] Cell viability after 24 h was measured. The reported values correspond to mean values ± standard deviation (± s.d) of three experiments. ***p < 0.001, ****p < 0.0001.
LDH-Cytotoxicity Colorimetric Assay Kit II (Biovision) was used to detect LDH releasing. Briefly, HCC1937 were seeded on 96 well plate. After treatment with compounds, cells were centrifuged at 600×g for 10 min. 10 µl supernatant were transferred into clean 96 well plate and added into 100 µl LDH Reaction Mix. Following 30 min incubation at room temperature, 10 µl stop solution were added, and absorbance was measured at 450 nm (Varioscan, Thermo Fisher Scientific, US).

Data set [5] deals with HeLa, HCC1937, MCF7, A549 and MRC-5. Put plainly: cells. It is filed as cell-based, Human. The conditions noted are these: for IC50: Homo sapiens, range over HeLa, HCC1937, MCF7, A549, MRC-5, read-out: IC50 across the five cell lines.
Description: We next aimed to further characterize the relation between the chemical structure of AG-08 and its capacity of supramolecular assembly formation together with its biological activities by preparing further derivatives. In this regard, 18 analogs (Fig. 4) were synthesized from 20(27)-octanor-cycloastragenol (SCG), cycloastragenol (CG), and astragenol (AG) by the methods shown in the method section. The details and characterization of which are shown in Supplementary Information. The cytotoxic activities of the semi-synthetic analogs were evaluated against four human cancer cell lines, namely HeLa, HCC1937, MCF7, and A549 as well as against MRC-5 as a normal cell line.
as §1, §2

The conditions of data set [6]: fibrils inducing apoptosis; cited from earlier work.
The test system of data set [7] is HCC1937 cells. The data set can be described thus: Endocytosis/vesicular trafficking inhibitors against AG-08-mediated cell death. The conditions noted are these: 1 h pre-treatment, then 8 µM AG-08 24 h, HCC1937, WST-1. It is filed as cell-based, Human. How it is done: Figure 2 AG-08 is related with endosomal pathway. (A) After pre-treatment with 20 µM pitstop II, 0.5 mM methyl-β-cyclodextrin (MβC), 80 µM dynasore, 20 µM cytochalasin d (Cyto D) or 20 µM chlorpromazine (CPZ) for 1 h, HCC1937 cells were treated with 8 µM AG-08 for 24 h. Then cell viability was determined by using WST-1. Reported values were normalized on cells treated with only AG-08. Error bars are the standard deviations (n = 3). p-values were calculated with respect to AG-08 treated cells by two-tailed equal variance Student’s t-test (*p < 0.05, ***p < 0.001, ****p < 0.0001) (B) HCC1937 cells were treated with brefeldin A (Bref A) for 1 h and then treated with 8 µM AG-08 for 24 h. Error bars represent standard deviations (n = 3). p-values were calculated with respect to AG-08-treated cells (*p < 0.05, **p < 0.005, ***p < 0.001). (C) Following AG-08 treatment for 16 h, EEA1 proteins were stained using the anti-EEA1 antibody in HCC1937 cells (scale bar = 25 µm).
Pitstop II (Sigma; SML1169), methyl β cyclodextrin (Cayman; 21,633), chlorpromazine (Cayman; 16,129), dynasore (Cayman, 14,062) and cytochalasin D (Cayman; 11,330) were used as endocytosis inhibitors.

As for `CC(C)(O)C1CCC(C)(C2C(O)CC3(C)C4CC(O)C5C(C)(CCC(O)C5(C)C)C4=CCC23C)O1` (centres unmarked) [AG, astragenol, reference compound], the IC50 in the data set with HeLa, in the data set on A549, with MRC-5, in the data set with HCC1937 [1] and with MCF7 was more than 30 µM throughout. In addition, the “Nile red fluorescence intensity (particle formation)” value in data set [2] is reported as “no fluorescence intensity”.
In the case of `Cc1ccc(S(=O)(=O)OC2CCC3(C)C4=CCC5(C)C(C6(C)CCC(C(C)(C)O)O6)C(O)CC5(C)C4CC(=O)C3C2(C)C)cc1` (centres unmarked) [AG-05], the IC50 (as a rule, the concentration that gives 50% inhibition) is 5.9 µM in the data set with HeLa; 2.02 µM in the data set on A549; 1.55 µM with MRC-5; 4.28 µM in the data set on HCC1937 [1]; 2.55 µM in the data set on MCF7; 1.55 to 5.9 µM in data set [5]. For the same compound, the “formation of supramolecular assemblies/particles” value in the data set on HCC1937 cells [3] was “form supramolecular assemblies; also recorded: formed supramolecular particles”. The “mode of cell death” value with HCC1937 [4] is “induced necrotic cell death”. In data set [5], the “cytotoxic activity (structure-activity statement)” value (“cytotoxic activity” below) is reported as “higher activity”.
Regarding `CC(=O)Nc1ccc(S(=O)(=O)OC2CCC3(C)C4=CCC5(C)C(C6(C)CCC(C(C)(C)O)O6)C(O)CC5(C)C4C=CC3C2(C)C)cc1` (centres unmarked) [AG-06], the IC50 in the data set with HeLa is 10.8 µM; in the data set on A549 it was 5.7 µM; in the data set on MRC-5, 19.1 µM; with HCC1937 [1], 10 µM; in the data set on MCF7, 9.34 µM; in [5], 5.7 to 19.1 µM. Also, the “formation of supramolecular assemblies/particles” value with HCC1937 cells [3] was “formed supramolecular particles”. In addition, the “mode of cell death” value in the data set on HCC1937 [4] was “induced necrotic cell death”. In addition, the “cytotoxic activity” value in data set [5] was “decrease in activity”.
On to `Cc1ccc(S(=O)(=O)OC2CCC34CC35CCC3(C)C(C6(C)CCC(C(C)(C)O)O6)C(O)CC3(C)C5C=CC4C2(C)C)cc1` (centres unmarked) [CG-03], for which the IC50 in the data set on HeLa is 12.9 µM; with A549, 3.65 µM; with MRC-5 it was 5.29 µM; in the data set with HCC1937 [1] it was 6.13 µM; in the data set on MCF7, 5.5 µM; in data set [5] it was 3.65 to 12.9 µM. In addition, the “formation of supramolecular assemblies/particles” value in the data set on HCC1937 cells [3] is “form supramolecular assemblies; also recorded: formed supramolecular particles”. For the same compound, in the data set on HCC1937 [4], the “mode of cell death” value is reported as “induced necrotic cell death”.
With `Cc1ccc(S(=O)(=O)OC2CCC34CC35CCC3(C)C(C6(C)CCC(C(C)(C)O)O6)C(O)CC3(C)C5CC(=O)C4C2(C)C)cc1` (centres unmarked) [CG-05], the IC50 in the data set with HeLa is 6.1 µM; with A549 it was 1.85 µM; in the data set with MRC-5 it was 2.58 µM; in the data set on HCC1937 [1] it was 2.66 µM; in the data set on MCF7, 3.85 µM; in data set [5], 1.85 to 6.1 µM. In the data set on HCC1937 cells [3], the “formation of supramolecular assemblies/particles” value was “form supramolecular assemblies; also recorded: formed supramolecular particles”. The “mode of cell death” value with HCC1937 [4] is “induced necrotic cell death”. In addition, in [5], the “cytotoxic activity” value was “higher activity”.
`CC(=O)Nc1ccc(S(=O)(=O)OC2CCC34CC35CCC3(C)C(C6(C)CCC(C(C)(C)O)O6)C(O)CC3(C)C5C=CC4C2(C)C)cc1` (centres unmarked) [CG-06]: the IC50 was more than 50 µM in the data set on HeLa; more than 50 µM in the data set with A549; more than 50 µM in the data set with MRC-5; 38.1 µM in the data set with HCC1937 [1]; 41.3 µM in the data set on MCF7. Moreover, the “formation of supramolecular assemblies/particles” value with HCC1937 cells [3] is listed as “form supramolecular assemblies”. In the data set with HCC1937 [4], the “mode of cell death” value is “induced necrotic cell death”. The “cytotoxic activity” value in [5] is recorded as “complete activity loss”.
Take `C=C(C)[C@@H]1CC[C@]2(C(=O)O)CC[C@]3(C)[C@H](CC[C@@H]4[C@@]5(C)CC[C@H](O)C(C)(C)[C@@H]5CC[C@]43C)[C@@H]12` [betulinic acid]: the “concentration at which fibrils form” value in data set [6] is more than 50000 µM.
Turning to `O=C(N/N=C/c1ccc(O)c(O)c1)c1cc2ccccc2cc1O` [dynasore], in the data set with HCC1937 cells [7], the “protection of cells against AG-08-mediated cell death” value (“protection of cells” below) is “failed to rescue cells”.
Consider `O=C1N=C(NS(=O)(=O)c2cccc3ccccc23)SC1=Cc1ccc(Br)cc1` [pitstop II], for which, in the data set on HCC1937 cells [7], the “protection of cells” value was “effectively protected cells”.
With methyl β-cyclodextrin, in the data set on HCC1937 cells [7], the “protection of cells” value is recorded as “effectively protected cells”.
